Data as given in patent US9913836B2, “Anticholinergic neuroprotective composition and methods” (priority 2012, dated 2018).
Several values for one entry are separate records, joined by “and”; a condition that tells them apart may be missing. Equal values may be shown once. Entries after “also recorded” stand apart in the source; their conditions may differ.

Key:
[1] = Single-blind crossover study in healthy volunteers: maximum tolerated dose and adverse events of rivastigmine given with placebo or active trospium; type: in vivo, human
Procedure: (§1) In this single-blind crossover study, healthy volunteers were hospitalized at a Phase I Center (Forenap, Rouffach, France) for the once daily oral administration of ascending doses of rivastigmine hydrogen tartrate (“rivastigmine”), (3 mg to a possible maximum of 24 mg in 3 mg increments as tolerated) together with placebo trospium and then with ascending amounts of rivastigmine (3 mg to a possible maximum of 24 mg as tolerated) together with active trospium. Placebo trospium or active trospium (at a fixed dose of 40 mg per day) were given orally once daily 3 hours before rivastigmine administration. Venous blood was collected for the measurement of plasma drug levels at their nominal peaks (approximately 1 hour after rivastigmine administration). Subjects were monitored clinically for 4 hours after drug administration or until all adverse events had subsided.

[2] = Same study: peak plasma levels of rivastigmine given with placebo or active trospium; type: in vivo, human
Procedure: as §1

[3] = cited from earlier work
[4] = open-label, 1.5 mg up to 6 mg twice daily, 26 weeks; no worsening of motor function; cited from earlier work
[5] = system: acetylcholinesterase / butyrylcholinesterase; conditions: cited from earlier work
[6] = Birks 2009; Forette 1999; cited from earlier work
[7] = in vivo; cited from earlier work
[8] = solifenacin 10 mg versus placebo
Procedure: Safety and tolerability were evaluated based on subject reports, physician observations and examinations, and the performance of standard laboratory tests.

Tg2576 mouse model of AD = conditions: in vivo; cited from earlier work
[9] = subject (c), dose above tolerated dose

CCN(C)C(=O)Oc1cccc([C@H](C)N(C)C)c1 [rivastigmine, (S)—N-Ethyl-N-methyl-3-[1-(dimethylamino)ethyl]-phenyl carbamate]
Tolerated dose of rivastigmine given with placebo trospium ([1]; individual healthy volunteers (a)-(c), once daily oral ascending doses 3 to 24 mg, placebo trospium 3 hours before): 9 mg and 15 mg | Tolerated dose of rivastigmine given with 40 mg of trospium ([1]; individual healthy volunteers (a)-(c), once daily oral ascending doses 3 to 24 mg, trospium 40 mg oral 3 hours before): 24 mg and 18 mg | Adverse events at the tolerated rivastigmine dose given with placebo trospium ([1]; individual subjects, rivastigmine 9 mg (a), 15 mg (b, c)): moderate nausea and mild somnolence; also recorded: mild dry mouth | Adverse events at the tolerated rivastigmine dose given with 40 mg of trospium ([1]; individual subjects, rivastigmine 24 mg (a), 18 mg (b, c)): mild nausea as well as abdominal pain, headache and respiratory difficulty in addition to moderate anorexia; also recorded: mild dry mouth and moderate urinary difficulty | Tolerated rivastigmine dose with 40 mg trospium as multiple of the maximum recommended single oral dose (6 mg) ([1]; subject (a): 4, subjects (b) and (c): 3): 4 times and 3 times | Average peak plasma rivastigmine with trospium relative to without trospium ([2]; 88 ng/ml versus 30.7 ng/ml): 2.9 times | Average peak plasma rivastigmine with trospium relative to literature value ([2]; 88 ng/ml versus about 12 ng/ml reported): ~7.3 times | Average peak plasma concentration of rivastigmine given without trospium ([2]; average of 2 subjects): 30.7 ng/mL | Peak plasma (maximum tolerated) concentration of rivastigmine given with placebo trospium ([2]; venous blood about 1 hour after 15 mg rivastigmine, individual subjects (b), (c)): 53 ng/mL and 8.3 ng/mL | Peak plasma (maximum tolerated) concentration of rivastigmine given with 40 mg of trospium ([2]; venous blood about 1 hour after rivastigmine 24 mg (a) or 18 mg (b, c), individual subjects): 39 ng/mL and 94 ng/mL and 131 ng/mL | Benefits on cognitive and global measures relevant to dementia ([3]; patients with dementias of the Alzheimer type): small, but statistically significant, benefits | Cognitive improvement in patients with Alzheimer's disease on doubling the dose ([3]; skin patches instead of immediate release tablets, without increasing side effects): significantly increased the amount of cognitive improvement | Cognitive functions in PD patients with dementia [4]: may improve the cognitive functions | Affinity / selectivity for acetylcholinesterase versus butyrylcholinesterase [5]: inhibits both enzymes with similar affinity | Reported average maximum tolerated single oral dose of rivastigmine [6]: about 4.5 mg

O=C(O[C@H]1C[C@H]2CC[C@@H](C1)[N+]21CCCC1)C(O)(c1ccccc1)c1ccccc1 [Trospium, 3-(2-hydroxy-2,2-diphenylacetoxy)-spiro[bicyclo[3.2.1]octane-8,1′-pyrrolidin]-1′-ium]
Average plasma half-life of the absorbed amount [7]: about 18 hours

COc1cc2c(cc1OC)C(=O)C(CC1CCN(Cc3ccccc3)CC1)C2 (racemic) [donepezil, (±)-2,3-dihydro-5,6-dimethoxy-2-[[1-(phenylmethyl)-4-piperidinyl]methyl]-1H-inden-1-one]
Adverse events at the tolerated donepezil dose given with placebo solifenacin (individual subjects, donepezil 5 mg (a, b, c, f), 15 mg (d), 30 mg (e)): no adverse events; also recorded: severe abdominal pain, weakness, moderate anorexia, sweating and dry mouth; also recorded: moderate weakness, mild dizziness and moderate hypersalivation | Adverse events at the tolerated donepezil dose given with 10 mg of solifenacin (individual subjects, donepezil 10 mg (a, f), 15 mg (b, d), 5 mg (c), 40 mg (e)): moderate nausea and moderate dizziness; also recorded: no adverse events; also recorded: moderate abdominal pain and severe headache | Subjects in whom solifenacin co-treatment enabled substantially higher daily doses of donepezil (solifenacin 10 mg versus placebo): 4 out of 6 | Adverse events with 10 mg of donepezil and placebo solifenacin [9]: severe anorexia, nausea, retching, vomiting, weakness, headache, moderate diarrhea, and mild sweating, dizziness, somnolence, hypersalivation, muscular cramps | Adverse events with 10 mg of donepezil given with 10 mg of solifenacin [9]: severe nausea and retching | Increase of the donepezil MTD after donepezil/solifenacin combination (the other subjects (a), (b), (e), (f)): 33-300% | Increase of peak donepezil levels with combined therapy [8]: ~2.6 fold | A-beta deposition in Tg2576 mice (Tg2576 mouse model of AD): did not affect | Effect on A-beta and synaptic density parameters at lower doses (Tg2576 mouse model of AD): not effective | Learning and memory functions in Tg2576 mice (Tg2576 mouse model of AD): improved | Synaptic density in the molecular layer of the dentate gyrus (Tg2576 mouse model of AD): significantly increased
